Results published in patent US9611252B2 (LifeSci Pharmaceuticals, Inc., priority 2013, dated 2017).

Key:
human Plasma Kallikrein = human Plasma Kallikrein (Homo sapiens (Human), UniProt P03952); assay: In vitro enzyme inhibition of human plasma kallikrein (PFR-AMC cleavage); format: biochemical; details: human plasma kallikrein, Pro-Phe-Arg-AMC substrate, 37° C.; read-out: hPK IC50
In short: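 Compound pre-incubated with human plasma kallikrein 5 min at 37° C in 50 mM Tris-HCl pH 7.5, 150 mM NaCl, 0.01% Triton X-100. Reaction started with PFR-AMC, cleavage read kinetically at 37° C every 43 s for 1 h.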

kallikrein = kallikrein (Homo sapiens (Human), UniProt P03952); assay: In vitro cellular assay (contact assay): kallikrein activity in ellagic acid-activated human plasma, substrate Z-FR-2-AMC; format: biochemical; details: human plasma activated with ellagic acid, Z-FR-2-AMC substrate, 37° C.; read-out: Contact Assay EC50
Method: The ability of the compounds disclosed herein to inhibit cellular kallikrein activity was quantified and the respective EC50 value was determined.
All dilutions were prepared in an assay buffer comprising 50 mM Tris-HCl pH 7.2, 150 mM NaCl, and 0.01% Triton X-100.
The ten solutions of the test compounds, prepared by serial dilution, were further diluted 50-fold in the assay buffer.
Human plasma is thawed on ice and centrifuged for 15 min at 4° C. to remove platelets. A 1 mM stock solution of ellagic acid is diluted to 8 μM and mixed with human plasma, after removing platelets, at a ratio of 1:0.8.
A 22.5 μL volume of the final mixture of human plasma and ellagic acid was added to a 96-well microwell plate and the plate was incubated for 15 min at 37° C.
The CINH inhibitor at various concentrations, prepared by serial dilutions as described above, were added to the inhibitor control wells. […] Each CINH concentration is tested in duplicates.
The test compounds at various concentrations, also prepared by serial dilutions as described above, are added to the test wells. […] Each test compound concentration was tested in duplicates.
In addition to the inhibitor control and test wells, the 96 well assay plate includes positive control wells which contained the mixture of human plasma and ellagic acid without C1NH inhibitor or test compounds, and background wells which contained neither the mixture of human plasma and ellagic acid nor the test compounds. The total volume of liquid in positive control and background wells was brought up to 35 μL, using the assay buffer.
The assay plate containing C1NH inhibitors and test compounds mixed with human plasma and ellagic acid and appropriate controls was incubated at 37° C. for 5 min. […] The reagents were mixed well by shaking the plate gently for 30 sec.
The enzyme reaction was quantified by immediate kinetic reading of the assay plate using excitation/emission wavelengths of 330 nm/440 nm respectively. Fluorescence intensity was recorded for 60 min, using a time interval of 43 sec.
The inhibition activity of the test compounds were evaluated using the IC50 values, calculated according to the dose-response curve of the test compounds, fitted using the “log(inhibitor)-response (variable slope)” equation in GraphPadPrism software (GraphPad Software, Inc.).
The percentage inhibition was calculated using the following equation:
[formula] where, Mean(BG) is the average value of the fluorescence intensity of the background wells and Mean(PC) is the average value of the fluorescence intensity of the positive control wells.
Table 4 provides the EC50 values of various compounds disclosed herein.

kallikrein, sequence (P03952 20-638): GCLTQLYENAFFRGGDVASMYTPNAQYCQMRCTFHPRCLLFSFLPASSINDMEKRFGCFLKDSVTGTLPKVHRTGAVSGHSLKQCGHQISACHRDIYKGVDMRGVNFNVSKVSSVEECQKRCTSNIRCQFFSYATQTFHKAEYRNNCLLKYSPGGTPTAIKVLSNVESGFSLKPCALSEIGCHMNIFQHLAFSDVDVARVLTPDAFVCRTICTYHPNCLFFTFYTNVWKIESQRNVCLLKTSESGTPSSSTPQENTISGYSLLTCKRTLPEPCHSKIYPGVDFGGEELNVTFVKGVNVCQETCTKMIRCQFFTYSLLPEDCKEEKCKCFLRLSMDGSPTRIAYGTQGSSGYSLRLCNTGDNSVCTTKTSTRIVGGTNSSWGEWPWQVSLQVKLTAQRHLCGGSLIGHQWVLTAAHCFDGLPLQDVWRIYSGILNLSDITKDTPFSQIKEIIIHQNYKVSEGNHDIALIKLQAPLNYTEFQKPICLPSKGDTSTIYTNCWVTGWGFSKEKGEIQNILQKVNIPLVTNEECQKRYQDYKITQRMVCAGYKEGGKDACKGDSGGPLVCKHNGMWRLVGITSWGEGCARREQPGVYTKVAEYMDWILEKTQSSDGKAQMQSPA
human Plasma Kallikrein, sequence (P03952 20-638): as above

SMILES	IC50 (human Plasma Kallikrein)	EC50 (kallikrein)
Cc1cc(N)nc(C)c1CNC(=O)c1ccnc(Cc2cc(S(C)(=O)=O)c3ncc(Cl)cc3c2)c1 [Example 67, N-((6-amino-2,4-dimethylpyridin-3-yl)methyl)-2-((3-chloro-8-(methylsulfonyl)quinolin-6-yl)methyl)isonicotinamide]	< 100 nM	< 100 nM
CS(=O)(=O)c1cc(Cc2cc(C(=O)NCc3cc4c(Cl)c[nH]c4cc3F)ccn2)cc2cc(Cl)cnc12 [Example 68, N-((3-chloro-6-fluoro-1H-indol-5-yl)methyl)-2-((3-chloro-8-(methylsulfonyl)quinolin-6-yl)methyl)isonicotinamide]	< 100 nM	< 100 nM
Cc1nc(N)ccc1CNC(=O)c1ccnc(Cc2cc(S(C)(=O)=O)c3ncc(Cl)cc3c2)c1 [Example 69, N-((6-amino-2-methylpyridin-3-yl)methyl)-2-((3-chloro-8-(methylsulfonyl)quinolin-6-yl)methyl)isonicotinamide]	< 100 nM	< 100 nM
Cc1cnc2c(C#N)cc(Cc3cc(C(=O)NCc4c(C)cc(N)nc4C)ccn3)cc2c1 [Example 70, N-((6-amino-2,4-dimethylpyridin-3-yl)methyl)-2-((8-cyano-3-methylquinolin-6-yl)methyl)isonicotinamide]	< 100 nM	< 100 nM
Cc1cnc2c(C#N)cc(Cc3cc(C(=O)NCc4ccc5c(N)nccc5c4)ccn3)cc2c1 [Example 71, N-((1-aminoisoquinolin-6-yl)methyl)-2-((8-cyano-3-methylquinolin-6-yl)methyl)isonicotinamide]	< 100 nM	< 100 nM
Cc1cnc2c(C#N)cc(Cc3cc(C(=O)NCc4cc5c(Cl)c[nH]c5cc4F)ccn3)cc2c1 [Example 72, N-((3-chloro-6-fluoro-1H-indol-5-yl)methyl)-2-((8-cyano-3-methylquinolin-6-yl)methyl)isonicotinamide]	< 100 nM	100 to 1000 nM
Cc1cnc2c(C#N)cc(Cc3cc(C(=O)NCc4cnc5[nH]cc(Cl)c5c4)ccn3)cc2c1 [Example 73, N-((3-chloro-1H-pyrrolo[2,3-b]pyridin-5-yl)methyl)-2-((8-cyano-3-methylquinolin-6-yl)methyl)isonicotinamide]	< 100 nM	100 to 1000 nM
Cc1cnc2c(C(N)=O)cc(Cc3cc(C(=O)NCc4c(C)cc(N)nc4C)ccn3)cc2c1 [Example 77, 6-((4-(((6-amino-2,4-dimethylpyridin-3-yl)methyl)carbamoyl)pyridin-2-yl)methyl)-3-methylquinoline-8-carboxamide]	< 100 nM	< 100 nM
Cc1cnc2c(C(N)=O)cc(Cc3cc(C(=O)NCc4cc5c(Cl)c[nH]c5cc4F)ccn3)cc2c1 [Example 78, 6-((4-(((3-chloro-6-fluoro-1H-indol-5-yl)methyl)carbamoyl)pyridin-2-yl)methyl)-3-methylquinoline-8-carboxamide]	< 100 nM	< 100 nM
Cc1cnc2c(C(N)=O)cc(Cc3cc(C(=O)NCc4ccc5c(N)nccc5c4)ccn3)cc2c1 [Example 79, 6-((4-(((1-aminoisoquinolin-6-yl)methyl)carbamoyl)pyridin-2-yl)methyl)-3-methylquinoline-8-carboxamide]	< 100 nM	< 100 nM
Cc1cnc2c(C(N)=O)cc(Cc3cc(C(=O)NCc4cnc5[nH]cc(Cl)c5c4)ccn3)cc2c1 [Example 80, 6-((4-(((3-chloro-1H-pyrrolo[2,3-b]pyridin-5-yl)methyl)carbamoyl)pyridin-2-yl)methyl)-3-methylquinoline-8-carboxamide]	< 100 nM	< 100 nM
Cc1cnc2c(C(N)=O)cc(Cc3cc(C(=O)NCc4ccc5[nH]cc(Cl)c5c4F)ccn3)cc2c1 [Example 81, 6-((4-(((3-chloro-4-fluoro-1H-indol-5-yl)methyl)carbamoyl)pyridin-2-yl)methyl)-3-methylquinoline-8-carboxamide]	< 100 nM	100 to 1000 nM
Cc1cnc2c(C(N)=O)cc(Cc3cc(C(=O)NCc4n[nH]c5ccc(Cl)cc45)ccn3)cc2c1 [Example 82, 6-((4-(((5-chloro-1H-indazol-3-yl)methyl)carbamoyl)pyridin-2-yl)methyl)-3-methylquinoline-8-carboxamide]	< 100 nM	100 to 1000 nM
Cc1cnc2c(C(N)=O)cc(Cc3cc(C(=O)NCc4cc5cc[nH]c5cc4F)ccn3)cc2c1 [Example 83, 6-((4-(((6-fluoro-1H-indol-5-yl)methyl)carbamoyl)pyridin-2-yl)methyl)-3-methylquinoline-8-carboxamide]	< 100 nM	100 to 1000 nM
Cc1cnc2c(C(=O)O)cc(Cc3cc(C(=O)NCc4c(C)cc(N)nc4C)ccn3)cc2c1 [Example 84, 6-((4-(((6-amino-2,4-dimethylpyridin-3-yl)methyl)carbamoyl)pyridin-2-yl)methyl)-3-methylquinoline-8-carboxylic acid]	< 100 nM	< 100 nM
Cc1cc(N)nc(C)c1CNC(=O)c1ccnc(Cc2cc(F)c3ncc(Cl)cc3c2)c1 [Example 89, N-(6-amino-2,4-dimethyl-pyridin-3-ylmethyl)-2-(3-chloro-8-fluoro-quinolin-6-ylmethyl)-isonicotinamide]	< 100 nM	< 100 nM
Cc1nc(N)ccc1CNC(=O)c1ccnc(Cc2cc(F)c3ncc(Cl)cc3c2)c1 [Example 91, N-(6-amino-2-methyl-pyridin-3-ylmethyl)-2-(3-chloro-8-fluoro-quinolin-6-ylmethyl)-isonicotinamide]	< 100 nM	< 100 nM
Cc1cc(N)nc(C)c1CNC(=O)c1ccnc(Cc2cc(Cl)c3ncc(Cl)cc3c2)c1 [Example 100, N-((6-amino-2,4-dimethylpyridin-3-yl)methyl)-2-((3,8-dichloroquinolin-6-yl)methyl)isonicotinamide]	< 100 nM	< 100 nM
Cc1ccc2cc(Cc3cc(C(=O)NCc4cc5c(Cl)c[nH]c5cc4F)ccn3)ccc2n1 [Example 110, N-((3-chloro-6-fluoro-1H-indol-5-yl)methyl)-2-((2-methylquinolin-6-yl)methyl)isonicotinamide]	< 100 nM	100 to 1000 nM
Cc1ccc2cc(Cc3cc(C(=O)NCc4ccc5c(N)nccc5c4)ccn3)ccc2n1 [Example 111, N-((1-aminoisoquinolin-6-yl)methyl)-2-((2-methylquinolin-6-yl)methyl)isonicotinamide]	< 100 nM	100 to 1000 nM
Cc1ccc2cc(Cc3cc(C(=O)NCc4c(C)cc(N)nc4C)ccn3)ccc2n1 [Example 113, N-((6-amino-2,4-dimethylpyridin-3-yl)methyl)-2-((2-methylquinolin-6-yl)methyl)isonicotinamide]	< 100 nM	< 100 nM
Cc1ccc2ncc(Cc3cc(C(=O)NCc4c(C)cc(N)nc4C)ccn3)cc2c1 [Example 114, N-((6-amino-2,4-dimethylpyridin-3-yl)methyl)-2-((6-methylquinolin-3-yl)methyl)isonicotinamide]	< 100 nM	< 100 nM
Cc1ccc2ncc(Cc3cc(C(=O)NCc4ccc5c(N)nccc5c4)ccn3)cc2c1 [Example 115, N-((1-aminoisoquinolin-6-yl)methyl)-2-((6-methylquinolin-3-yl)methyl)isonicotinamide]	< 100 nM	< 100 nM
